Data reported in patent US20260076369A1, “USE OF MELATONIN AND/OR PRECURSOR THEREOF FOR DECREASING THE PLANT NITRATE CONTENT” (priority 2022, published 2026).
Marks after values point to notes of the source that are not given here.

Legend:
[1] = test system: Lettuce plants (Lactuca sativa L.); test: Nitrate concentration in lettuce leaves after foliar spray; type: in vivo; details: for decrease of leaves nitrate content: 20 micromolar, vs control; for Nitrate concentration in lettuce leaves: 20 micromolar spray with Tween 20; for time the decrease of leaf nitrate content is maintained after the treatment: lettuce, 20 micromolar foliar spray
Description: Lettuce plants (Lactuca sativa L.), were cultivated in pots containing an alkaline soil and receiving mineral fertilization including ammonium nitrate (NAC 27) in a greenhouse under controlled conditions (16 h light/8 h dark and 25° C.). Once the commercial size of the plants was reached, the plants were divided in three groups. The Control group (CT) was sprayed with water and a surfactant (Tween 20); the melatonin (M) group was sprayed with a solution of 20 micromolar of synthetic melatonin and the adjuvant; and the tryptophan group (Tr) was sprayed with a solution of 20 micromolar of biosynthetic tryptophan and the adjuvant. The plants were harvested 48 h and […] after foliar application at 12 am. Nitrate concentration in the leaves was determined in leaf water extract by colorimetric detection at 415 nm after reaction of nitrate with salicylic acid in acidic medium and the formation of nitrosalicylate. Each treatment and harvest had five plants.

[2] = test system: French Bean plants (Phaseolus vulgaris); test: Nitrate concentration in bean leaves after soil application; type: in vivo; details: 20 micromolar total
Description: French Bean plants (Phaseolus vulgaris), were cultivated in pots containing a peat substrate and receiving mineral fertilization including 40 kg N/hectare by ammonium nitrate and 20 kg SO3/hectare by magnesium sulfate in a greenhouse under controlled conditions (16 h light/8 h dark and 25° C.). The fertilizers were brought to the surface of the pots after 10 days of culture.
Just after adding the fertilizers, the plants were divided in four groups. The experiment was arranged in a randomized complete block design with six replicates. The Control group (CT) was without any treatment; 3 groups were treated by addition of an aqueous solution of (1) synthetic melatonin (SM) (20 micromolar), (2) phytomelatonin (pM) (20 micromolar) from a Spirulina extract and (3) a combination of synthetic melatonin (10 micromolar), and phytomelatonin from a rich Spirulina extract (CM) (10 micromolar). Applications have been done in the soils 10 days after transplantation and one time every 7 days. Plants were harvested 6 weeks after transplanting and 2 weeks after the last treatment. Then leaves were dried and used for the determination of dry weight and nitrate content. Nitrate concentration in the leaves was determined by High Performance Ionic Chromatography. The results were expressed in mg NO3/g of dry matter.

[3] = harvest 48 h after foliar application, CT 1563
[4] = harvest 120 h after foliar application, CT 1452

Row | SMILES | decrease of leaves nitrate content ([1]; 48 h after the treatment) [%] | decrease of leaves nitrate content ([1]; 120 h after the treatment) [%] | Nitrate concentration in lettuce leaves [1, 3] | Nitrate concentration in lettuce leaves [1, 4] | time the decrease of leaf nitrate content is maintained after the treatment [1] | decrease of nitrate content in bean leaves ([2]; 2 weeks after the last treatment, vs control) [%] | Nitrate content in bean leaves ([2]; applied to soil every 7 days, harvest 2 weeks after last treatment, CT 2.47)
1 | COc1ccc2[nH]cc(CCNC(C)=O)c2c1 [Melatonin, N-acetyl-5-methoxy tryptamine] | 53 | 50 | 738* mg kg^−1 fresh weight | 706* mg kg^−1 fresh weight | at least 5 days | 79 | 0.52* mg/g of dry weight
2 | N[C@@H](Cc1c[nH]c2ccccc12)C(=O)O [tryptophan] | 50 | 39 | 780* mg kg^−1 fresh weight | 887* mg kg^−1 fresh weight | at least 5 days | – | –
